Assay results taken from ChEMBL document CHEMBL3286153, “Evaluation of the antiviral efficacy of bis[1,2]dithiolo[1,4]thiazines and bis[1,2]dithiolopyrrole derivatives against the nucelocapsid protein of the Feline Immunodeficiency Virus (FIV) as a model for HIV infection” (Bioorg Med Chem Lett, 2014).

What was measured:
[1] = Therapeutic index, ratio of CC50 for cat CRFK cells to EC50 for Feline immunodeficiency virus infected in cat FL-4 cells; type: cell-based; settings: for Ratio CC50/EC50: crfk; for selectivity ratio: read-out: Ratio CC50/EC50
[2] = Cytotoxicity against cat CRFK cells assessed as cell viability after 7 days by MTT assay; type: cell-based, Felis catus; settings: for CC50: crfk, 168 h; for CC50 at 168 h: CRFK cells
[3] = test system: Feline immunodeficiency virus; assay: Antiviral activity against Feline immunodeficiency virus infected in cat FL-4 cells assessed as viral RNA production by RT-qPCR; type: functional, organism-based
[4] = Cytotoxicity against cat CRFK cells assessed as cell viability at 10 uM after 24 hrs by MTT assay; type: cell-based, Felis catus; settings: read-out: Activity
[5] = Feline immunodeficiency virus, FL-4, read-out: EC50

Row | Structure (SMILES) | EC50 [3, 5] | Ratio CC50/EC50 [1] | CC50 [2] | EC50 ([3]; fl-4) | viability at 24 h, 10 µM [4] | selectivity ratio [1] | CC50 at 168 h [2]
1 | CCN1c2c(ssc2=O)Sc2ssc(=O)c21 |  | ND(toxic) | ND(toxic) | ND(toxic) | 40.2% |  | 
2 | CCn1c2c(=S)ssc2c2ssc(=S)c21 | 656 nM |  |  |  | > 100% | 30.6 | 20100 nM
3 | Cc1cn([C@H]2C[C@H](N=[N+]=[N-])[C@@H](CO)O2)c(=O)[nH]c1=O [ZIDOVUDINE] | 5310 nM |  |  |  | > 100% | > 18.8 | > 100000 nM
4 | CCOC(=O)CCn1c2c(=O)ssc2c2ssc(=O)c21 |  | ND(toxic) | ND(toxic) | ND(toxic) | 78.2% |  | 
5 | CC(=O)OCCN1c2c(ssc2=O)Sc2ssc(=O)c21 |  | ND(toxic) | ND(toxic) | ND(toxic) | 39.2% |  | 

More lines, main results first:

Row | EC50 [3, 5] | Structure (SMILES) | Ratio CC50/EC50 [1] | CC50 [2] | EC50 ([3]; fl-4) | viability at 24 h, 10 µM [4] | selectivity ratio [1] | CC50 at 168 h [2]
6 | 16.2 nM | CCOC(=O)CCN1c2c(ssc2=O)Sc2ssc(=O)c21 |  |  |  | 76.8% | 3.5 | 56 nM
7 | < 1 nM | CCN1c2c(ssc2=S)Sc2ssc(=S)c21 |  |  |  | 98.8% | > 31 | 31 nM
8 | 9.98 nM | Cc1nnc(C(=O)NC(C)(C)c2nc(C(=O)NCc3ccc(F)cc3)c(O)c(=O)n2C)o1 [RALTEGRAVIR] |  |  |  | > 100% | > 100000 | > 100000 nM
9 | 642 nM | CCOC(=O)CCN1c2c(ssc2=O)Sc2ssc(=S)c21 |  |  |  | 91.2% | 3.5 | 2270 nM
10 | 345 nM | CCN1c2c(ssc2=O)Sc2ssc(=S)c21 |  |  |  | > 100% | > 29 | > 10000 nM
11 | 379 nM | O=C(O)CCN1c2c(ssc2=S)Sc2ssc(=S)c21 |  |  |  | 97.2% | 4.5 | 1720 nM
